In brackets after ≈: the same amount, converted by molar mass.
Experiments:
Acinetobacter baumannii [1] = experiment: Antibacterial activity against Acinetobacter baumannii by macrodilution method; format: functional
Acinetobacter baumannii [2] = experiment: Antibacterial activity against multidrug-resistant Acinetobacter baumannii producing OXA-24 and OXA-51 beta-lactamases assessed as post-antibiotic sub-MIC effect at 0.3 times MIC concentration pretreated with 10 times MIC concentration for 1 hr followed by 1:1000 dilution by viable plate count method; format: functional
Escherichia coli [3] = experiment: Antibacterial activity against Escherichia coli assessed as post-antibiotic sub-MIC effect at 0.2 times MIC concentration pretreated with 6 times MIC concentration for 1 hr followed by 1:1000 dilution by viable plate count method; format: functional
Enterobacter cloacae [4] = experiment: Antibacterial activity against Enterobacter cloacae assessed as sub-MIC effect at 0.2 times MIC concentration incubated for 1 hr by viable plate count method; format: functional
Klebsiella pneumoniae = experiment: Antibacterial activity against Klebsiella pneumoniae assessed as post-antibiotic sub-MIC effect at 0.3 times MIC concentration pretreated with 10 times MIC concentration for 1 hr followed by 1:1000 dilution by viable plate count method; format: functional
Staphylococcus aureus [5] = experiment: Antibacterial activity against vancomycin-intermediate methicillin-resistant Staphylococcus aureus assessed as post-antibiotic sub-MIC effect at 0.3 times MIC concentration pretreated with 6 times MIC concentration for 1 hr followed by 1:1000 dilution by viable plate count method; format: functional
Escherichia coli [6] = experiment: Antibacterial activity against Escherichia coli assessed as post-antibiotic sub-MIC effect at 0.4 times MIC concentration pretreated with 10 times MIC concentration for 1 hr followed by 1:1000 dilution by viable plate count method; format: functional
Staphylococcus aureus [7] = experiment: Antibacterial activity against vancomycin-sensitive methicillin-resistant Staphylococcus aureus assessed as sub-MIC effect at 0.4 times MIC concentration incubated for 1 hr by viable plate count method; format: functional
Enterococcus faecalis [8] = experiment: Antibacterial activity against vancomycin-sensitive Enterococcus faecalis assessed as post antibiotic effect at 10 times MIC concentration incubated for 1 hr measured after 1:1000 dilution by viable plate count method; format: functional
Acinetobacter baumannii [9] = experiment: Antibacterial activity against multidrug-resistant Acinetobacter baumannii producing OXA-24 and OXA-51 beta-lactamases assessed as sub-MIC effect at 0.2 times MIC concentration incubated for 1 hr by viable plate count method; format: functional
Enterococcus faecium = experiment: Antibacterial activity against Enterococcus faecium assessed as post antibiotic effect; format: functional
Streptococcus pneumoniae [10] = experiment: Antibacterial activity against penicillin-resistant Streptococcus pneumoniae assessed as post antibiotic effect at 10 times MIC concentration incubated for 1 hr measured after 1:1000 dilution by viable plate count method; format: functional
Acinetobacter baumannii [11] = experiment: Antibacterial activity against multidrug-resistant Acinetobacter baumannii producing OXA-24 and OXA-51 beta-lactamases by macrodilution method; format: functional
Streptococcus pneumoniae [12] = experiment: Antibacterial activity against penicillin-susceptible Streptococcus pneumoniae assessed as sub-MIC effect at 0.2 times MIC concentration incubated for 1 hr by viable plate count method; format: functional
Escherichia coli [13] = experiment: Antibacterial activity against Escherichia coli assessed as sub-MIC effect at 0.2 times MIC concentration incubated for 1 hr by viable plate count method; format: functional
Acinetobacter baumannii [14] = experiment: Antibacterial activity against Acinetobacter baumannii assessed as sub-MIC effect at 0.4 times MIC concentration incubated for 1 hr by viable plate count method; format: functional
Acinetobacter baumannii [15] = experiment: Antibacterial activity against multidrug-resistant Acinetobacter baumannii producing OXA-24 and OXA-51 beta-lactamases assessed as post-antibiotic sub-MIC effect at 0.4 times MIC concentration pretreated with 2 times MIC concentration for 1 hr followed by 1:1000 dilution by viable plate count method; format: functional
Enterobacter cloacae [16] = experiment: Antibacterial activity against Enterobacter cloacae assessed as post antibiotic effect at 2 times MIC concentration incubated for 1 hr measured after 1:1000 dilution by viable plate count method; format: functional
[17] = Half life in patient serum at 100 mg, iv followed by 50 mg every 12 hrs after 60 mins post dose; format: ADME, organism-based; conditions: human
Streptococcus pneumoniae [18] = experiment: Antibacterial activity against penicillin-susceptible Streptococcus pneumoniae assessed as post antibiotic effect at 10 times MIC concentration incubated for 1 hr measured after 1:1000 dilution by viable plate count method; format: functional
Enterococcus faecalis [19] = experiment: Antibacterial activity against vancomycin-resistant Enterococcus faecalis assessed as post-antibiotic sub-MIC effect at 0.4 times MIC concentration pretreated with 10 times MIC concentration for 1 hr followed by 1:1000 dilution by viable plate count method; format: functional
Haemophilus influenzae [20] = experiment: Antibacterial activity against beta-lactamase deficient and ampicillin-resistant Haemophilus influenzae by macrodilution method; format: functional
Haemophilus influenzae [21] = experiment: Antibacterial activity against beta-lactamase deficient and ampicillin-resistant Haemophilus influenzae assessed as sub-MIC effect at 0.4 times MIC concentration incubated for 1 hr by viable plate count method; format: functional
Haemophilus influenzae [22] = experiment: Antibacterial activity against beta-lactamase deficient ampicillin-resistant Haemophilus influenzae assessed as post-antibiotic sub-MIC effect at 0.2 times MIC concentration pretreated with 10 times MIC concentration for 1 hr followed by 1:1000 dilution by viable plate count method; format: functional
Streptococcus pneumoniae [23] = experiment: Antibacterial activity against penicillin-susceptible Streptococcus pneumoniae assessed as sub-MIC effect at 0.4 times MIC concentration incubated for 1 hr by viable plate count method; format: functional
Enterobacter cloacae [24] = experiment: Antibacterial activity against Enterobacter cloacae assessed as sub-MIC effect at 0.3 times MIC concentration incubated for 1 hr by viable plate count method; format: functional
Staphylococcus aureus [25] = experiment: Antibacterial activity against vancomycin-intermediate methicillin-resistant Staphylococcus aureus assessed as post-antibiotic sub-MIC effect at 0.2 times MIC concentration pretreated with 6 times MIC concentration for 1 hr followed by 1:1000 dilution by viable plate count method; format: functional
Enterococcus faecalis [26] = experiment: Antibacterial activity against vancomycin-sensitive Enterococcus faecalis assessed as post-antibiotic sub-MIC effect at 0.4 times MIC concentration pretreated with 10 times MIC concentration for 1 hr followed by 1:1000 dilution by viable plate count method; format: functional
Staphylococcus aureus [27] = experiment: Antibacterial activity against vancomycin-sensitive methicillin-resistant Staphylococcus aureus assessed as post-antibiotic sub-MIC effect at 0.2 times MIC concentration pretreated with 10 times MIC concentration for 1 hr followed by 1:1000 dilution by viable plate count method; format: functional
Enterococcus faecalis [28] = experiment: Antibacterial activity against vancomycin-resistant Enterococcus faecalis assessed as sub-MIC effect at 0.3 times MIC concentration incubated for 1 hr by viable plate count method; format: functional
Enterococcus faecalis [29] = experiment: Antibacterial activity against vancomycin-sensitive Enterococcus faecalis assessed as post-antibiotic sub-MIC effect at 0.3 times MIC concentration pretreated with 10 times MIC concentration for 1 hr followed by 1:1000 dilution by viable plate count method; format: functional
Enterobacter cloacae [30] = experiment: Antibacterial activity against Enterobacter cloacae assessed as post-antibiotic sub-MIC effect at 0.3 times MIC concentration pretreated with 2 times MIC concentration for 1 hr followed by 1:1000 dilution by viable plate count method; format: functional
Staphylococcus aureus [31] = experiment: Antibacterial activity against vancomycin-sensitive methicillin-resistant Staphylococcus aureus assessed as sub-MIC effect at 0.3 times MIC concentration incubated for 1 hr by viable plate count method; format: functional
Enterobacter cloacae [32] = experiment: Antibacterial activity against Enterobacter cloacae assessed as post-antibiotic sub-MIC effect at 0.2 times MIC concentration pretreated with 2 times MIC concentration for 1 hr followed by 1:1000 dilution by viable plate count method; format: functional
Staphylococcus aureus [33] = experiment: Antibacterial activity against vancomycin-intermediate methicillin-resistant Staphylococcus aureus assessed as sub-MIC effect at 0.4 times MIC concentration incubated for 1 hr by viable plate count method; format: functional

Structure (SMILES): CN(C)c1cc(NC(=O)CNC(C)(C)C)c(O)c2c1C[C@H]1C[C@H]3[C@H](N(C)C)C(O)=C(C(N)=O)C(=O)[C@@]3(O)C(O)=C1C2=O [TIGECYCLINE]
- MIC (Acinetobacter baumannii [1]): 0.12 µg/mL (≈ 0.205 µM)
- PAE (Acinetobacter baumannii [2]): 2.2 h
- PAE (Escherichia coli [3]): 1.9 h
- PAE (Enterobacter cloacae [4]): 0.2 h
- PAE (Klebsiella pneumoniae): 2 h
- PAE (Staphylococcus aureus [5]): 9.8 h
- PAE (Escherichia coli [6]): 3.5 h
- PAE (Staphylococcus aureus [7]): 0.9 h
- PAE (Enterococcus faecalis [8]): 3.9 h
- PAE (Acinetobacter baumannii [9]): 0.4 h
- PAE (Enterococcus faecium): 2.5 h
- PAE (Streptococcus pneumoniae [10]): 4.8 h
- MIC (Acinetobacter baumannii [11]): 2 µg/mL (≈ 3.41 µM)
- PAE (Streptococcus pneumoniae [12]): 0 h
- PAE (Escherichia coli [13]): 0 h
- PAE (Acinetobacter baumannii [14]): 11.2 h
- PAE (Acinetobacter baumannii [15]): 3 h
- PAE (Enterobacter cloacae [16]): 1 h
- half-life [17]: 40 h
- PAE (Streptococcus pneumoniae [18]): 3.7 h
- PAE (Enterococcus faecalis [19]): 11 h
- MIC (Haemophilus influenzae [20]): 0.06 µg/mL (≈ 0.102 µM)
- PAE (Haemophilus influenzae [21]): 0.8 h
- PAE (Haemophilus influenzae [22]): 2.8 h
- PAE (Streptococcus pneumoniae [23]): 0.8 h
- PAE (Enterobacter cloacae [24]): 0.4 h
- PAE (Staphylococcus aureus [25]): 5.6 h
- PAE (Enterococcus faecalis [26]): 8.2 h
- PAE (Staphylococcus aureus [27]): 3.6 h
- PAE (Enterococcus faecalis [28]): 0.3 h
- PAE (Enterococcus faecalis [29]): 6.8 h
- PAE (Enterobacter cloacae [30]): 4.9 h
- PAE (Staphylococcus aureus [31]): 0.2 h
- PAE (Enterobacter cloacae [32]): 2.9 h
- PAE (Staphylococcus aureus [33]): 2.9 h
